According to patent US10933030B2, “Use of paeonol for inhibiting angiogenesis or for enhancing radiosensitization” (priority 2005, dated 2021):

Assays:
B16BL6 melanoma cells [1] = assay: Tumor growth, paeonol in combination with 5-FU; assay type: in vivo; conditions: 5-FU 70 mg/kg i.p. at day 3 and 6; paeonol 1 mg per mouse oral twice a day for 21 days
Description: Synergy effect of paeonol in combination with anti-cancer drug, 5-fluorouracil (5-FU) was investigated. For the induction of primary tumor, B16BL6 melanoma cells (1×10^6) suspended in 0.2 ml of PBS were subcutaneously injected into C57BL6 female mice (SLC Co., Japan; 6 week-old, 20-25 g of body weight) adapted for 1 week. […] The size of tumor was measured once per 1-2 days for 21 days after injecting cancer cells and then the volume of tumor was calculated in accordance with the following equation, (width)^2×(length)×0.52.

B16BL6 melanoma cells [2] = assay: Lifetime elongation, paeonol in combination with 5-FU; assay type: in vivo, mouse; conditions: after 22 days, n=7
Description: Effects of paeonol on lifetime elongation of tumor-induced mice were investigated.
(§1) For the induction of primary tumor, B16BL6 melanoma cells (1×10^6) suspended in 0.2 ml of PBS were subcutaneously injected into C57BL6 female mice (SLC Co., Japan; 6 week-old, 20-25 g of body weight) adapted for 1 week.
In 5-FU & paeonol treated group, 70 mg/kg per mouse of 5-FU was intraperitoneally injected at 3 day and 6 day after injecting cancer cells, and 1 mg per mouse of paeonol dissolved in 0.2 ml of 20% ethanol was orally administrated twice a day for 21 days after injecting cancer cells. In 5-FU treated group, 70 mg/kg per mouse of 5-FU was treated in the same manner as 5-FU & paeonol treated group. In the other hand, 0.2 ml of 20% ethanol was also orally administrated into control group and 5-FU treated group in the same manner as 5-FU & paeonol treated group.

angiogenesis = assay: Mouse Matrigel model of angiogenesis (hemoglobin in Matrigel); assay type: in vivo; conditions: oral 0.5 mg per mouse twice a day (1 mg/day) for 4 days
Description: Effects of oral administration of paeonol on angiogenesis were quantitatively investigated in mouse Matrigel model. […] 0.5 mg of the above isolated paeonol was dissolved in 0.2 ml of 20% ethanol, and then 0.5 mg per mouse of paeonol (1 mg/day) was orally administrated into the treated group (n=8) twice a day for 4 days. In the other hand, 0.2 ml of 20% ethanol was also orally administrated into the control group (n=8) in the same manner as treated group. On the fifth day of oral administration, Matrigel was separated from excised skin of each mouse, and the level of hemoglobin in the Matrigel was measured in order to determine the inhibition of angiogenesis quantitatively.

B16BL6 melanoma cells [3] = assay: Growth of solid tumor in B16BL6 melanoma-injected mice; assay type: in vivo, mouse; conditions: oral 1 mg per day for 17 days; compared with control group
Description: Effects of administering the present composition comprising paeonol on the growth of solid tumor were investigated. For the induction of primary tumor, B16BL6 melanoma cells (1×10^6) suspended in 0.2 ml of PBS ([…]) were subcutaneously injected into C57BL6 female mice (SLC Co., Japan; 6 week-old, 20-25 g of body weight) adapted for 1 week. 0.5 mg of the above isolated paeonol was dissolved in 0.2 ml of 20% ethanol, and then 0.5 mg per mouse of paeonol (1 mg/day) was orally administrated into the treated group (n=7) twice a day for 17 days after injecting cancer cells. In the other hand, 0.2 ml of 20% ethanol was also orally administrated into the control group (n=7) in the same manner as treated group. The size of tumor was measured once per 1-2 days for 17 days after injecting cancer cells and then the volume of tumor was calculated in accordance with the following equation, (width)^2×(length)×0.52.

B16BL6 melanoma cells [4] = assay: Lifetime elongation of tumor-induced mice; assay type: in vivo, mouse; conditions: after 22 days; oral 1 mg/day; n=7
Description: Effects of the present composition comprising paeonol on lifetime elongation of tumor-induced mice were investigated.
as §1
0.5 mg of the above isolated paeonol was dissolved in 0.2 ml of 20% ethanol, and then 0.5 mg per mouse of paeonol (1 mg/day) was orally administrated into the treated group (n=7) twice a day for 22 days after injecting cancer cells. In the other hand, 0.2 ml of 20% ethanol was also orally administrated into the control group (n=7) in the same manner as treated group.

B16BL6 melanoma cells [5] = assay: Tumor metastasis into lung after intravenous injection of melanoma cells; assay type: in vivo, mouse
Description: Inhibitory effects of the present composition comprising paeonol on tumor metastasis in tumor-induced mice were investigated. […] 0.25 mg of the above isolated paeonol was dissolved in 0.2 ml of 20% ethanol, and then 0.25 mg per mouse of paeonol (0.5 mg/day) was orally administrated into the treated group (n=6) twice a day for 14 days after injecting cancer cells. In the other hand, 0.2 ml of 20% ethanol was also orally administrated into the control group (n=6) in the same manner as treated group. After 14 days, mice were dissected, and then the numbers of colonies, which metastasized into lung, were counted.

[6] = test system: human lung carcinoma cell line H460; assay: Radiosensitization, clone formation of lung carcinoma cell line H460; assay type: cell-based
Description: […] At 7 day after irradiation, the clone formation (%) of each groups were measured and then the survival rates of each groups were compared with each other. Irradiation with high dose of radiation into cancer cell line prevents clone formation.

[7] = test system: uterine carcinoma cell line HeLa; assay: Radiosensitization, clone formation of uterine carcinoma cell line HeLa; assay type: cell-based, human
Description: […] At 7 day after irradiation, the clone formation (%) of each groups were measured and then the survival rates of each groups were compared with each other.

[8] = test system: mouse lung carcinoma cell line, LLC (Lewis lung carcinoma); assay: Radiosensitization in LLC-transplanted mice, tumor growth rate; assay type: in vivo; conditions: for tumor growth rate went down as compared with control group: 5 mg/kg oral
Description: Effect of treatment of paeonol during radiation into lung carcinoma cell line-transplanted animal on radiosensitization was investigated. 1×10^6 of mouse lung carcinoma cell line, LLC (Lewis lung carcinoma) cell were suspended in 0.2 ml of PBS, and then were injected into left leg of mouse in order to induce the tumor. LLC-transplanted mice were classified into 4 groups such as control group (n=10), irradiation-treated group (n=10), paeonol-treated group (n=10), and irradiation & paeonol-treated group (n=10). […] For control group and irradiation group, 20% ethanol was orally administered in the same manner as paeonol-treated group. […] The sizes (width, length) of tumor were measured for 30 days at an interval of 2 or 3 days, and then the volumes of tumor were calculated by the following equation, (width)^2×(length)×0.52. The tumor growth rates were also calculated by converting into the time which it takes for tumor volume to be 2000 mm^3.

[9] = test system: mouse lung carcinoma cell line, LLC (Lewis lung carcinoma); assay: Radiosensitization in LLC-transplanted mice, survival; assay type: in vivo; conditions: for survival of mice: 5 mg/kg oral
Description: Effect of treatment of paeonol during radiation into lung carcinoma cell line-transplanted animal on radiosensitization was investigated.
1×10^6 of mouse lung carcinoma cell line, LLC (Lewis lung carcinoma) cell were suspended in 0.2 ml of PBS, and then were injected into left leg of mouse in order to induce the tumor. LLC-transplanted mice were classified into 4 groups such as control group (n=10), irradiation-treated group (n=10), paeonol-treated group (n=10), and irradiation & paeonol-treated group (n=10).
After the volumes of tumor were about 100-200 mm^3 (6-7 day after LLC injection), 5 Gy of ^60Co radiation was irradiated to irradiation-treated group and irradiation & paeonol-treated group three times at an interval of 2 or 3 days.
After the existence of tumor was detected by touching with hand (4 day after LLC injection), 5 mg/kg of paeonol dissolved in 20% ethanol was orally administered into paeonol-treated group and irradiation & paeonol group once a day for 20 days. For control group and irradiation group, 20% ethanol was orally administered in the same manner as paeonol-treated group.
Enhancing effects of paeonol in combination with radiation on efficacy of radiotherapy was determined by comparing both tumor growth rates and mouse survival rates of 4 groups with each other groups.

B16BL6 melanoma cells [10] = assay: Radiosensitization in melanoma-transplanted mice, tumor volume; assay type: in vivo, mouse; conditions: for decrease of tumor volume compared with control group: paeonol-treated group, no irradiation
Description: Effect of treatment of paeonol during radiation into melanoma-transplanted animal on radiosensitization was investigated. In order to induce primary tumor, B16BL6 melanoma cells (1×10^6) suspended in 0.2 ml of PBS was subcutaneously injected into C57BL6 female mice (SLC Co., Japan; 6 week-old […]) adapted for 1 week. Melanoma-transplanted mice were classified into 6 groups: control group (n=10), irradiation group (n=10), paeonol-treated groups (0.5 or 1 mg/kg per day) (n=10), and irradiation & paeonol-treated groups (0.5 or 1 mg/kg per day) (n=10), and then it was observed whether the combinational treatment of irradiation and paeonol enhances the radiosensitization of melanoma-transplanted animal. […] For control group and irradiation group, 20% ethanol was orally administered in the same manner as paeonol-treated group. The sizes (width, length) of tumor were measured for 30 days at an interval of 2 or 3 days, and then the volumes of tumor were calculated by the following equation, (width)^2×(length)×0.52.

[11] = test system: normal human lung cell (BEAS-2B); assay: Cytotoxicity test by MTT assay, normal lung cell; assay type: cell-based
Description: (§2) In order to examine the cytotoxicity of paeonol, 2×10^5 of normal human lung cell (BEAS-2B), human lung carcinoma cell (NCI-H460), human uterine carcinoma cell (HeLa) were treated with various concentrations (0.25, 0.5, 1, 2, 10 μg/ml) of paeonol for 24 hours, and then viabilities of each cells were measured by MTT assay.

[12] = test system: human lung carcinoma cell (NCI-H460); assay: Cytotoxicity test by MTT assay, lung carcinoma cell; assay type: cell-based
Description: as §2

[13] = test system: human uterine carcinoma cell (HeLa); assay: Cytotoxicity test by MTT assay, uterine carcinoma cell; assay type: cell-based
Description: as §2

[14] = Acute toxicity test in animal; assay type: in vivo; conditions: dosage of 100 mg/kg
[15] = Radiation 0 Gy, paeonol 1 μg/ml, 7 day
[16] = Radiation 0 Gy, paeonol 2 μg/ml, 7 day
[17] = Radiation 1 Gy, paeonol 2 μg/ml, 7 day after irradiation
[18] = Radiation 2 Gy, paeonol 1 μg/ml, 7 day after irradiation
[19] = Radiation 2 Gy, paeonol 2 μg/ml, 7 day after irradiation
[20] = Radiation 3 Gy, paeonol 1 μg/ml, 7 day after irradiation
[21] = Radiation 3 Gy, paeonol 2 μg/ml, 7 day after irradiation
[22] = 10 μg/ml of paeonol, 24 hours, MTT

O=c1[nH]cc(F)c(=O)[nH]1 [Compound 5-FU, 5-fluorouracil]
inhibition of tumor growth compared with control group (B16BL6 melanoma cells [1]): 50% | survival rate (B16BL6 melanoma cells [2]; 5-FU 70 mg/kg i.p. at day 3 and 6, paeonol 1 mg per mouse oral twice a day): 14% | number of mice survived (B16BL6 melanoma cells [2]): one

COc1ccc(C(C)=O)c(O)c1 [paeonol]
inhibition of angiogenesis (angiogenesis): about 67% | hemoglobin content of treated group as compared with control group (angiogenesis; Matrigel with bFGF and heparin): 33% | inhibition of tumor growth (B16BL6 melanoma cells [3]): 48% | number of mice survived (B16BL6 melanoma cells [4]): three | survival rate (B16BL6 melanoma cells [4]): 43% | colonies metastasized into lung per mouse (B16BL6 melanoma cells [5]; oral 0.25 mg per mouse twice a day (0.5 mg/day) for 14 days, control 213±60): 132±80 colonies | inhibition of metastasis into lung (B16BL6 melanoma cells [5]; oral 0.5 mg/day for 14 days): 38% | decrease of clone formation compared with control group irradiated with 3 Gy ([6]; 1 μg/ml of paeonol): 16% | decrease of clone formation compared with control group irradiated with 3 Gy ([6]; 2 μg/ml of paeonol): 31% | Clone formation (%) [6, 15]: 100% | Clone formation (%) [6, 16]: 100% | Clone formation (%) [6, 17]: 71.1% | Clone formation (%) ([6]; Radiation 1 Gy, paeonol 12 μg/ml, 7 day after irradiation): 72.5% | Clone formation (%) [6, 18]: 46.4% | Clone formation (%) [6, 19]: 43.3% | Clone formation (%) [6, 20]: 25.8% | Clone formation (%) [6, 21]: 21.2% | decrease of clone formation compared with control group irradiated with 3 Gy ([7]; 1 μg/ml of paeonol): 23% | decrease of clone formation compared with control group irradiated with 3 Gy ([7]; 2 μg/ml of paeonol): 39% | Clone formation (%) [7, 15]: 100% | Clone formation (%) [7, 16]: 100% | Clone formation (%) ([7]; Radiation 1 Gy, paeonol 1 μg/ml, 7 day after irradiation): 73.4% | Clone formation (%) [7, 17]: 72.8% | Clone formation (%) [7, 18]: 45.5% | Clone formation (%) [7, 19]: 44.7% | Clone formation (%) [7, 20]: 12.3% | Clone formation (%) [7, 21]: 10.9% | tumor growth rate went down as compared with control group ([8]; irradiation & paeonol-treated group, 5 Gy three times): 1.4 fold | Tumor growth rate (Time which it takes for tumor volume to be 2000 mm^3) ([8]; irradiation & paeonol-treated group: 5 Gy 60Co three times, paeonol 5 mg/kg oral once a day for 20 days, control 16, irradiation alone 19): 22 days | Tumor growth rate (Time which it takes for tumor volume to be 2000 mm^3) ([8]; paeonol-treated group, 5 mg/kg oral once a day for 20 days, no irradiation, control 16): 19 days | tumor growth rate went down as compared with control group ([8]; paeonol-treated group, no irradiation): 1.2 fold | increase of survival rate compared with control group ([9]; irradiation & paeonol-treated group): about 2 times | survival of mice ([9]; irradiation & paeonol-treated group, 5 Gy three times, control 42, irradiation alone 60): 78 days | survival of mice ([9]; paeonol-treated group, no irradiation, control 42): 69 days | decrease of tumor volume compared with control group, maximum (B16BL6 melanoma cells [10]; irradiation & paeonol-treated groups (0.5 or 1.0 mg/kg), 5 Gy at 4 and 6 day, irradiation alone 33.1%): ≤ 58.9% | decrease of tumor volume compared with control group (B16BL6 melanoma cells [10]; 0.5 mg/kg oral once a day): 6.4% | decrease of tumor volume compared with control group (B16BL6 melanoma cells [10]; 1.0 mg/kg oral once a day): 9.3% | cytotoxicity [11, 22]: 6% | LD50 ([11]; human): did not show enough toxicity to calculate LD50 | cytotoxicity [12, 22]: 18% | LD50 ([12]; human): did not show enough toxicity to calculate LD50 | cytotoxicity [13, 22]: 15% | LD50 ([13]; human): did not show enough toxicity to calculate LD50 | side effects during administration [14]: no side effects
